In brackets after ≈: the same amount, converted by molar mass.
Test system: M. tuberculosis H37Rv
Assay: MIC vs. M. tuberculosis H37Rv, microplate Alamar Blue assay (MABA)
Assay type: cell-based
Details: Mycobacterium tuberculosis, H37RV, Table 4; read-out: MIC

| SMILES | MIC [µM] |
| --- | --- |
| CC[C@H]1OC(=O)[C@H](C)[C@@H](OC2CC(C)(OC)C(OC(=O)c3ccccc3)C(C)O2)[C@H](C)[C@@H](OC2OC(C)CC(N(C)C)C2O)[C@](C)(OC)C[C@@H](C)C(=O)[C@H](C)[C@H]2N(NCCCc3ccnc4ccccc34)C(=O)O[C@]12C (stereo partly shown) [Compound 1SH53a] | 1.69 (≈ 1.79 µg/mL) |
| CC[C@H]1OC(=O)[C@H](C)[C@@H](OC2CC(C)(OC)C(OC(=O)c3ccccc3)C(C)O2)[C@H](C)[C@@H](OC2OC(C)CC(N(C)C)C2OC(=O)c2ccccc2)[C@](C)(OC)C[C@@H](C)C(=O)[C@H](C)[C@H]2N(NCCCc3ccnc4ccccc34)C(=O)O[C@]12C (stereo partly shown) [Compound 1SH53b] | 11 (≈ 12.8 µg/mL) |
| CC[C@H]1OC(=O)[C@H](C)C(O[C@H]2CC(C)(OC)[C@@H](OC(=O)Nc3ccccc3)[C@H](C)O2)[C@H](C)[C@@H](O[C@@H]2O[C@H](C)C[C@H](N(C)C)[C@H]2O)[C@](C)(OC)C[C@@H](C)C(=O)[C@H](C)[C@@H](O)[C@]1(C)O (stereo partly shown) [Compound 1SH63] | 16 (≈ 13.9 µg/mL) |
| CC[C@H]1OC(=O)[C@H](C)[C@@H](OC2CC(C)(OC)C(O)C(C)O2)[C@H](C)[C@@H](OC2OC(C)CC(N(C)C)C2OC(=O)Nc2ccccc2)[C@](C)(OC)C[C@@H](C)C(=O)[C@H](C)[C@@H](O)[C@]1(C)O (stereo partly shown) [Compound 3ZZ19] | 12 (≈ 10.4 µg/mL) |

Same assay, conditions: Table 3; parallel-synthesis carbazate library products, SPE purified; read-out: MIC

| SMILES | MIC [µM] |
| --- | --- |
| CC[C@H]1OC(=O)[C@H](C)[C@@H](O[C@H]2CC(C)(OC)[C@@H](O)[C@H](C)O2)[C@H](C)[C@@H](O[C@@H]2O[C@H](C)C[C@H](N(C)C)[C@H]2O)[C@](C)(OC)C[C@@H](C)C(=O)[C@H](C)[C@H]2N(NCc3[nH]ncc3Br)C(=O)O[C@]12C (stereo partly shown) [D1′] | 23 (≈ 21.8 µg/mL) |
| CC[C@H]1OC(=O)[C@H](C)[C@@H](O[C@H]2CC(C)(OC)[C@@H](O)[C@H](C)O2)[C@H](C)[C@@H](O[C@@H]2O[C@H](C)C[C@H](N(C)C)[C@H]2O)[C@](C)(OC)C[C@@H](C)C(=O)[C@H](C)[C@H]2N(NCc3c(C(F)(F)F)nn(C)c3Cl)C(=O)O[C@]12C (stereo partly shown) [D3′] | 20 (≈ 19.7 µg/mL) |
| CC[C@H]1OC(=O)[C@H](C)[C@@H](O[C@H]2CC(C)(OC)[C@@H](O)[C@H](C)O2)[C@H](C)[C@@H](O[C@@H]2O[C@H](C)C[C@H](N(C)C)[C@H]2O)[C@](C)(OC)C[C@@H](C)C(=O)[C@H](C)[C@H]2N(NCc3c[nH]nc3-c3ccc(F)cc3)C(=O)O[C@]12C (stereo partly shown) [D5′] | 25 (≈ 24.1 µg/mL) |
| CC[C@H]1OC(=O)[C@H](C)[C@@H](O[C@H]2CC(C)(OC)[C@@H](O)[C@H](C)O2)[C@H](C)[C@@H](O[C@@H]2O[C@H](C)C[C@H](N(C)C)[C@H]2O)[C@](C)(OC)C[C@@H](C)C(=O)[C@H](C)[C@H]2N(NCc3cnn(-c4ccc(F)cc4)c3C)C(=O)O[C@]12C (stereo partly shown) [D7′] | 13 (≈ 12.7 µg/mL) |
| CC[C@H]1OC(=O)[C@H](C)[C@@H](O[C@H]2CC(C)(OC)[C@@H](O)[C@H](C)O2)[C@H](C)[C@@H](O[C@@H]2O[C@H](C)C[C@H](N(C)C)[C@H]2O)[C@](C)(OC)C[C@@H](C)C(=O)[C@H](C)[C@H]2N(NCc3cccnc3)C(=O)O[C@]12C (stereo partly shown) [D9′] | >15 |
| CC[C@H]1OC(=O)[C@H](C)[C@@H](O[C@H]2CC(C)(OC)[C@@H](O)[C@H](C)O2)[C@H](C)[C@@H](O[C@@H]2O[C@H](C)C[C@H](N(C)C)[C@H]2O)[C@](C)(OC)C[C@@H](C)C(=O)[C@H](C)[C@H]2N(NCc3ccnc4ccccc34)C(=O)O[C@]12C (stereo partly shown) [D11′] | 16 (≈ 14.9 µg/mL) |
| CC[C@H]1OC(=O)[C@H](C)[C@@H](O[C@H]2CC(C)(OC)[C@@H](O)[C@H](C)O2)[C@H](C)[C@@H](O[C@@H]2O[C@H](C)C[C@H](N(C)C)[C@H]2O)[C@](C)(OC)C[C@@H](C)C(=O)[C@H](C)[C@H]2N(NCc3cnccc3NC(=O)C(C)(C)C)C(=O)O[C@]12C (stereo partly shown) [E2′] | >27 |
| CC[C@H]1OC(=O)[C@H](C)[C@@H](O[C@H]2CC(C)(OC)[C@@H](O)[C@H](C)O2)[C@H](C)[C@@H](O[C@@H]2O[C@H](C)C[C@H](N(C)C)[C@H]2O)[C@](C)(OC)C[C@@H](C)C(=O)[C@H](C)[C@H]2N(NCc3cccnc3NC(=O)C(C)(C)C)C(=O)O[C@]12C (stereo partly shown) [E4′] | >27 |
| CC[C@H]1OC(=O)[C@H](C)[C@@H](O[C@H]2CC(C)(OC)[C@@H](O)[C@H](C)O2)[C@H](C)[C@@H](O[C@@H]2O[C@H](C)C[C@H](N(C)C)[C@H]2O)[C@](C)(OC)C[C@@H](C)C(=O)[C@H](C)[C@H]2N(/N=C/c3cnc(-c4ccccc4)nc3C)C(=O)O[C@]12C (stereo partly shown) [E6′] | 5 (≈ 4.84 µg/mL) |
| CC[C@H]1OC(=O)[C@H](C)[C@@H](O[C@H]2CC(C)(OC)[C@@H](O)[C@H](C)O2)[C@H](C)[C@@H](O[C@@H]2O[C@H](C)C[C@H](N(C)C)[C@H]2O)[C@](C)(OC)C[C@@H](C)C(=O)[C@H](C)[C@H]2N(NCc3c[nH]c(=O)[nH]c3=O)C(=O)O[C@]12C (stereo partly shown) [E8′] | >20 |
| CC[C@H]1OC(=O)[C@H](C)[C@@H](O[C@H]2CC(C)(OC)[C@@H](O)[C@H](C)O2)[C@H](C)[C@@H](O[C@@H]2O[C@H](C)C[C@H](N(C)C)[C@H]2O)[C@](C)(OC)C[C@@H](C)C(=O)[C@H](C)[C@H]2N(NCc3cccn3CCC#N)C(=O)O[C@]12C (stereo partly shown) [E10′] | 20 (≈ 18.4 µg/mL) |
| CC[C@H]1OC(=O)[C@H](C)[C@@H](O[C@H]2CC(C)(OC)[C@@H](O)[C@H](C)O2)[C@H](C)[C@@H](O[C@@H]2O[C@H](C)C[C@H](N(C)C)[C@H]2O)[C@](C)(OC)C[C@@H](C)C(=O)[C@H](C)[C@H]2N(NCc3cccn3-c3ccc(Cl)cc3)C(=O)O[C@]12C (stereo partly shown) [E12′] | 3.4 (≈ 3.32 µg/mL) |
| CC[C@H]1OC(=O)[C@H](C)[C@@H](O[C@H]2CC(C)(OC)[C@@H](O)[C@H](C)O2)[C@H](C)[C@@H](O[C@@H]2O[C@H](C)C[C@H](N(C)C)[C@H]2O)[C@](C)(OC)C[C@@H](C)C(=O)[C@H](C)[C@H]2N(NCc3cccn3-c3ccc(C(F)(F)F)cc3)C(=O)O[C@]12C (stereo partly shown) [F1′] | 17.6 (≈ 17.8 µg/mL) |
| CC[C@H]1OC(=O)[C@H](C)[C@@H](O[C@H]2CC(C)(OC)[C@@H](O)[C@H](C)O2)[C@H](C)[C@@H](O[C@@H]2O[C@H](C)C[C@H](N(C)C)[C@H]2O)[C@](C)(OC)C[C@@H](C)C(=O)[C@H](C)[C@H]2N(NCc3sc(C)nc3C)C(=O)O[C@]12C (stereo partly shown) [F5′] | >19 |
| CC[C@H]1OC(=O)[C@H](C)[C@@H](O[C@H]2CC(C)(OC)[C@@H](O)[C@H](C)O2)[C@H](C)[C@@H](O[C@@H]2O[C@H](C)C[C@H](N(C)C)[C@H]2O)[C@](C)(OC)C[C@@H](C)C(=O)[C@H](C)[C@H]2N(NCc3nc4ccccc4s3)C(=O)O[C@]12C (stereo partly shown) [F7′] | 16 (≈ 15 µg/mL) |
| CC[C@H]1OC(=O)[C@H](C)[C@@H](O[C@H]2CC(C)(OC)[C@@H](O)[C@H](C)O2)[C@H](C)[C@@H](O[C@@H]2O[C@H](C)C[C@H](N(C)C)[C@H]2O)[C@](C)(OC)C[C@@H](C)C(=O)[C@H](C)[C@H]2N(NCc3csc(-c4ccccc4)n3)C(=O)O[C@]12C (stereo partly shown) [F9′] | 12.6 (≈ 12.1 µg/mL) |
| CC[C@H]1OC(=O)[C@H](C)[C@@H](O[C@H]2CC(C)(OC)[C@@H](O)[C@H](C)O2)[C@H](C)[C@@H](O[C@@H]2O[C@H](C)C[C@H](N(C)C)[C@H]2O)[C@](C)(OC)C[C@@H](C)C(=O)[C@H](C)[C@H]2N(NCc3cc(Br)cs3)C(=O)O[C@]12C (stereo partly shown) [F11′] | 12.7 (≈ 12.2 µg/mL) |
| CC[C@H]1OC(=O)[C@H](C)[C@@H](O[C@H]2CC(C)(OC)[C@@H](O)[C@H](C)O2)[C@H](C)[C@@H](O[C@@H]2O[C@H](C)C[C@H](N(C)C)[C@H]2O)[C@](C)(OC)C[C@@H](C)C(=O)[C@H](C)[C@H]2N(NCc3cc4ccccc4s3)C(=O)O[C@]12C (stereo partly shown) [G2′] | 11 (≈ 10.3 µg/mL) |

Same assay, conditions: Table 5; read-out: MIC

| SMILES | MIC [µM] |
| --- | --- |
| CCC1OC(=O)C(C)C(OC2CC(C)(OC)C(O)C(C)O2)C(C)C(OC2OC(C)CC(N(C)C)C2O)C(C)(O)CC(C)C(=NN=Cc2cccc(C(F)(F)F)c2)C(C)C(O)C1(C)O (stereo not shown) [Compound 1OK119] | 16 (≈ 14.5 µg/mL) |
| CCC1OC(=O)C(C)C(OC2CC(C)(OC)C(O)C(C)O2)C(C)C(OC2OC(C)CC(N(C)C)C2O)C(C)(O)CC(C)C(=NN=Cc2ccc(SC)cc2)C(C)C(O)C1(C)O (stereo not shown) [Compound 1OK121] | 12 (≈ 10.6 µg/mL) |
| CCC1OC(=O)C(C)C(OC2CC(C)(OC)C(O)C(C)O2)C(C)C(OC2OC(C)CC(N(C)C)C2O)C(C)(O)CC(C)C(=NNCc2ccc(C(F)(F)F)cc2)C(C)C(O)C1(C)O (stereo not shown) [Compound 1OK133] | 25 (≈ 22.7 µg/mL) |
| CCC1OC(=O)C(C)C(OC2CC(C)(OC)C(O)C(C)O2)C(C)C(OC2OC(C)CC(N(C)C)C2O)C(C)(O)CC(C)C(=NNCc2ccc(SC)cc2)C(C)C(O)C1(C)O (stereo not shown) [Compound 1OK137] | 47 (≈ 41.6 µg/mL) |
| CCCCCCNC(=O)OC1C(OC2C(C)C(OC3CC(C)(OC)C(O)C(C)O3)C(C)C(=O)OC(CC)C(C)(O)C(O)C(C)C(=O)C(C)CC2(C)OC)OC(C)CC1N(C)C (stereo not shown) [Compound 1SH88] | 15 (≈ 13.1 µg/mL) |
| CCC1OC(=O)C(C)C(O)C(C)C(OC2OC(C)CC(N(C)C)C2O)C(C)(OC)CC(C)C(=NOCCC2CCCCC2)C(C)C(O)C1(C)O (stereo not shown) [Compound 2GY5] | 3.1 (≈ 2.22 µg/mL) |
| CC[C@H]1OC(=O)[C@H](C)[C@@H](O)[C@H](C)[C@@H](O[C@@H]2O[C@H](C)C[C@H](N(C)C)[C@H]2O)[C@](C)(OC)C[C@@H](C)C(=NOCCc2ccccc2)[C@H](C)[C@@H](O)[C@]1(C)O [Compound 2GY7] | 16 (≈ 11.3 µg/mL) |
| CCC1OC(=O)C(C)C(O)C(C)C(OC2OC(C)CC([N+](C)(C)Cc3ccccc3)C2OCc2ccccc2)C(C)(OC)CC(C)C(=NOCc2ccccc2)C(C)C(O)C1(C)O (stereo not shown) [Compound 2GY11] | 7.1 |
| CCC1OC(=O)C(C)C(OCc2ccccc2)C(C)C(OC2OC(C)CC([N+](C)(C)Cc3ccccc3)C2OCc2ccccc2)C(C)(OC)CC(C)C(=NOCc2ccccc2)C(C)C(O)C1(C)O (stereo not shown) [Compound 2GY12] | 6.3 |
| CC[C@H]1OC(=O)[C@H](C)[C@@H](O)[C@H](C)[C@@H](O[C@@H]2O[C@H](C)C[C@H](N(C)C)[C@H]2O)[C@](C)(OC)C[C@@H](C)C(=NOCCCc2ccccc2)[C@H](C)[C@@H](O)[C@]1(C)O [Compound 2GY15] | 6.3 (≈ 4.55 µg/mL) |
| CCC1OC(=O)C(C)C(OC2CC(C)(OC)C(O)C(C)O2)C(C)C(OC2OC(C)CC(N(C)C)C2OC(=S)Nc2ccccc2)C(C)(O)CC(C)C(=NOCOCCOC)C(C)C(O)C1(C)O (stereo not shown) [Compound 3ZZ59b] | 5.6 (≈ 5.44 µg/mL) |
| CCC1OC(=O)C(C)C(OC2CC(C)(OC)C(O)C(C)O2)C(C)C(OC2OC(C)CC(N(C)C)C2OC(=S)Nc2ccccc2)C(C)(OC)CC(C)C(=O)C(C)C(O)C1(C)O (stereo not shown) [Compound 3ZZ61b] | 7.3 (≈ 6.45 µg/mL) |
